# “And” between values parts separate entries of the source, which are not always exact repeats. Equal values may be shown once. Read-outs that look alike come from different tables or passages of the source.
# How the values were obtained:
# [1] = for Cyclosporine per insert Mean ± SD: initial 671±13 μg; for Cyclosporine per insert, OD: 0.67 mg insert (initial 671±13 μg), 9% 4a20K SG/trilysine
# [2] = Proof of concept PK study Example 3.2: cyclosporine tear fluid concentration and drug released from inserts; assay type: in vivo, beagle dogs; conditions: beagle, insert nominal dose 0.44 mg, over 32 days, assuming consistent daily release
# Description: Inserts were removed at 32 days to determine the amount of remaining drug compared to the administered dose.
# [3] = beagle, insert nominal dose 0.7 mg, in 6 weeks
structure (smiles),measurement,setting,value
"CC=CCC(C)C(O)C1C(=O)NC(CC)C(=O)N(C)CC(=O)N(C)C(CC(C)C)C(=O)NC(C(C)C)C(=O)N(C)C(CC(C)C)C(=O)NC(C)C(=O)NC(C)C(=O)N(C)C(CC(C)C)C(=O)N(C)C(CC(C)C)C(=O)N(C)C(C(C)C)C(=O)N1C (centres unmarked) [cyclosporine, 30-ethyl-33-(1-hydroxy-2-methylhex-4-enyl)-1,4,7,10,12,15,19,25,28-nonamethyl-6,9,18,24-tetrakis(2-methylpropyl)-3,21-di(propan-2-yl)-1,4,7,10,13,16,19,22,25,28,31-undecazacyclotritriacontane-2,5,8,11,14,17,20,23,26,29,32-undecone]",Cyclosporine per insert Mean ± SD,"[1]; amount left in inserts removed from beagles at day 28, all eyes",576 ± 18 µg
same,Cyclosporine per insert Mean ± SD,"[1]; amount left in inserts removed from beagles at day 50, all eyes",494 ± 32 µg
same,"Cyclosporine per insert, OD",[1]; amount left in single insert removed from beagle right eye at day 28,596 µg
same,"Cyclosporine per insert, OD",[1]; amount left in single insert removed from beagle right eye at day 50,520 µg and 521 µg and 451 µg
same,released amount,"[1]; beagle, initial dose 671±13 μg, 28 days",3.4 µg
same,released amount,"[1]; beagle, initial dose 671±13 μg, 50 days",3.5 µg
same,amount of cyclosporine left in the removed insert,"[1]; beagle, initial dose 671±13 μg, inserts removed at 28 days",576 ± 18 µg
same,amount of cyclosporine left in the removed insert,"[1]; beagle, initial dose 671±13 μg, inserts removed at 50 days",494 ± 32 µg
same,daily estimated delivered dose,"[1]; beagle, initial dose 671±13 μg, over 28 and 50 days",approximately 3.5 μg/day
same,estimated daily delivered dose,[2],6.3 µg/day
same,average amount of cyclosporine released,[3],0.37 mg

# Reference: patent publication US11779536B2 (Ocular Therapeutix, Inc., priority 2020, dated 2023)
